Data reported in patent US8952024B2, “Herbicidal pyrimidone derivatives” (E I du Pont de Nemours and Company, priority 2009, dated 2015).

What was measured:
Assay type in all cases: in vivo
[1] = system: Surinam grass (Brachiaria decumbens); assay: Test B pre-/postemergence plant response; settings: Postemergence
Method in brief: (§1)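 Plants treated either at seeding (loam/sand soil) or postemergence at 2 to 18 cm height, using a surfactant-containing non-phytotoxic solvent formulation. Evaluation was visual after 13 to 15 days, 0 to 100 scale relative to controls.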

[2] = system: blackgrass (Alopecurus myosuroides); assay: Test B pre-/postemergence plant response; settings: for Blackgrass plant response rating (0 to 100 scale): 62 g ai/ha, postemergence, 0 is no effect, 100 is complete control; for Plant response rating, Blackgrass: Postemergence
Method in brief: as §1

corn (Zea mays) = assay: Test B pre-/postemergence plant response; settings: Postemergence
Method in brief: as §1

[3] = system: giant foxtail (Setaria faberii); assay: Test B pre-/postemergence plant response; settings: Postemergence
Method in brief: as §1

[4] = system: goosegrass (Eleusine indica); assay: Test B pre-/postemergence plant response; settings: Postemergence
Method in brief: as §1

[5] = system: green foxtail (Setaria viridis); assay: Test B pre-/postemergence plant response; settings: Postemergence
Method in brief: as §1

[6] = system: johnsongrass (Sorghum halepense); assay: Test B pre-/postemergence plant response; settings: Postemergence
Method in brief: as §1

[7] = system: lambsquarters (Chenopodium album); assay: Test B pre-/postemergence plant response; settings: Postemergence
Method in brief: as §1

[8] = system: pigweed (Amaranthus retroflexus); assay: Test B pre-/postemergence plant response; settings: Postemergence
Method in brief: as §1

[9] = system: ragweed (common ragweed, Ambrosia elatior); assay: Test B pre-/postemergence plant response; settings: Postemergence
Method in brief: as §1

wild oat (Avena fatua) = assay: Test B pre-/postemergence plant response; settings: Postemergence
Method in brief: as §1

rice (Oryza sativa) = assay: Test B flooded paddy test; settings: for Plant response rating, Rice: Flood (flooded paddy test), 13 to 15 days; for Rice plant response rating: Flood, 31 g ai/ha, scale 0 to 100 (0 no effect, 100 complete control)
Method in brief: (§2)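 Plants were grown to the 2-leaf stage, then pots were flooded to 3 cm above the soil and compounds were applied directly into the paddy water. That depth was held throughout. After 13 to 15 days in a greenhouse, injury was visually rated against controls on a 0–100 scale.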

[10] = system: umbrella sedge (Cyperus difformis); assay: Test B flooded paddy test; settings: for Plant response rating, Sedge, Umbrella: Flood (flooded paddy test), 13 to 15 days; for Sedge, Umbrella plant response rating: Flood, 31 g ai/ha, scale 0 to 100 (0 no effect, 100 complete control)
Method in brief: as §2

[11] = 31 g ai/ha, 0 to 100 scale (0 no effect, 100 complete control)
[12] = 125 g ai/ha, scale 0 to 100 (0 no effect, 100 complete control)
[13] = 250 g ai/ha, scale 0 to 100 (0 no effect, 100 complete control), 13 to 15 days
[14] = 250 g ai/ha, flooded paddy test, visual rating on 0 to 100 scale (0 no effect, 100 complete control) after 13 to 15 days
[15] = 62 g ai/ha, scale of 0 to 100 where 0 is no effect and 100 is complete control
[16] = 125 g ai/ha, scale 0 to 100, 0 is no effect, 100 is complete control

Question: For `CCCn1c(-c2cc(C)cc(C)c2)ncc(C(=O)C2=C(O)CCCC2=O)c1=O` [Compound 156], which “Plant response rating, Surinam Grass” value [1, 11] is on record?
Answer: 40

Question: What about the “Plant response rating, Surinam Grass” value [1, 12] of the same compound?
Answer: 60

Question: What about the “Plant response rating, Surinam Grass” value [1, 13] of the same compound?
Answer: 70

Question: What about the “Blackgrass plant response rating (0 to 100 scale)” value ([2]; 13 to 15 days) of the same compound?
Answer: 5

Question: What about the “Plant response rating, Blackgrass” value [2, 11] of the same compound?
Answer: 5

Question: And the “Plant response rating, Blackgrass” value [2, 12]?
Answer: 35

Question: And the “Plant response rating, Blackgrass” value [2, 13]?
Answer: 50

Question: What about the “Plant response rating, Corn” value (corn (Zea mays); [11]) of the same compound?
Answer: 10

Question: What about the “Plant response rating, Corn” value (corn (Zea mays); [12]) of the same compound?
Answer: 45

Question: What about the “Plant response rating, Corn” value (corn (Zea mays); [13]) of the same compound?
Answer: 60

Question: And the “Plant response rating, Foxtail, Giant” value [3, 11]?
Answer: 75

Question: And the “Plant response rating, Foxtail, Giant” value [3, 12]?
Answer: 85

Question: And the “Plant response rating, Foxtail, Giant” value [3, 13]?
Answer: 90

Question: And the “Plant response rating, Goosegrass” value [4, 11]?
Answer: 65

Question: And the “Plant response rating, Goosegrass” value [4, 12]?
Answer: 70

Question: And the “Plant response rating, Goosegrass” value [4, 13]?
Answer: 80

Question: What about the “Plant response rating, Foxtail, Green” value [5, 11] of the same compound?
Answer: 45

Question: What about the “Plant response rating, Foxtail, Green” value [5, 12] of the same compound?
Answer: 85

Question: What about the “Plant response rating, Foxtail, Green” value [5, 13] of the same compound?
Answer: 85

Question: What about the “Plant response rating, Johnsongrass” value [6, 11] of the same compound?
Answer: 15

Question: And the “Plant response rating, Johnsongrass” value [6, 12]?
Answer: 45

Question: What about the “Plant response rating, Johnsongrass” value [6, 13] of the same compound?
Answer: 65

Question: What about the “Plant response rating, Lambsquarters” value [7, 11] of the same compound?
Answer: 80

Question: And the “Plant response rating, Lambsquarters” value [7, 12]?
Answer: 95

Question: What about the “Plant response rating, Lambsquarters” value [7, 13] of the same compound?
Answer: 100

Question: And the “Plant response rating, Pigweed” value [8, 11]?
Answer: 60

Question: And the “Plant response rating, Pigweed” value [8, 12]?
Answer: 98

Question: And the “Plant response rating, Pigweed” value [8, 13]?
Answer: 100

Question: What about the “Plant response rating, Ragweed” value [9, 11] of the same compound?
Answer: 65

Question: And the “Plant response rating, Ragweed” value [9, 12]?
Answer: 75

Question: And the “Plant response rating, Ragweed” value [9, 13]?
Answer: 90

Question: What about the “Plant response rating, Oat, Wild” value (wild oat (Avena fatua); [11]) of the same compound?
Answer: 5

Question: And the “Plant response rating, Oat, Wild” value (wild oat (Avena fatua); [12])?
Answer: 35

Question: What about the “Plant response rating, Oat, Wild” value (wild oat (Avena fatua); [13]) of the same compound?
Answer: 50

Question: What about the “Plant response rating, Flood, Rice” value (rice (Oryza sativa); [14]) of the same compound?
Answer: 35

Question: What about the “Plant response rating, Rice” value (rice (Oryza sativa); [15]) of the same compound?
Answer: 30

Question: And the “Plant response rating, Rice” value (rice (Oryza sativa); [16])?
Answer: 20

Question: And the “Rice plant response rating” value (rice (Oryza sativa))?
Answer: 30

Question: What about the “Plant response rating, Flood, Sedge, Umbrella” value [10, 14] of the same compound?
Answer: 100

Question: And the “Plant response rating, Sedge, Umbrella” value [10, 15]?
Answer: 95

Question: And the “Plant response rating, Sedge, Umbrella” value [10, 16]?
Answer: 100

Question: And the “Sedge, Umbrella plant response rating” value [10]?
Answer: 0

Question: How did the “Plant response rating, Surinam Grass” value [1, 11] turn out when `Cc1ccc(F)cc1-n1c(-c2cccc(Cl)c2)ncc(C(=O)C2=C(O)CCCC2=O)c1=O` [Compound 157] was run?
Answer: 75

Question: What about the “Plant response rating, Surinam Grass” value [1, 12] of the same compound?
Answer: 98

Question: And the “Plant response rating, Surinam Grass” value [1, 13]?
Answer: 100

Question: What about the “Blackgrass plant response rating (0 to 100 scale)” value ([2]; 13 to 15 days) of the same compound?
Answer: 5

Question: And the “Plant response rating, Blackgrass” value [2, 11]?
Answer: 0

Question: And the “Plant response rating, Blackgrass” value [2, 12]?
Answer: 10

Question: And the “Plant response rating, Blackgrass” value [2, 13]?
Answer: 40

Question: And the “Plant response rating, Corn” value (corn (Zea mays); [11])?
Answer: 70

Question: And the “Plant response rating, Corn” value (corn (Zea mays); [12])?
Answer: 95

Question: What about the “Plant response rating, Corn” value (corn (Zea mays); [13]) of the same compound?
Answer: 100

Question: What about the “Plant response rating, Foxtail, Giant” value [3, 11] of the same compound?
Answer: 98

Question: And the “Plant response rating, Foxtail, Giant” value [3, 12]?
Answer: 100

Question: What about the “Plant response rating, Foxtail, Giant” value [3, 13] of the same compound?
Answer: 100

Question: What about the “Plant response rating, Goosegrass” value [4, 11] of the same compound?
Answer: 85

Question: What about the “Plant response rating, Goosegrass” value [4, 12] of the same compound?
Answer: 98

Question: And the “Plant response rating, Goosegrass” value [4, 13]?
Answer: 100

Question: And the “Plant response rating, Foxtail, Green” value [5, 11]?
Answer: 70

Question: What about the “Plant response rating, Foxtail, Green” value [5, 12] of the same compound?
Answer: 85

Question: What about the “Plant response rating, Foxtail, Green” value [5, 13] of the same compound?
Answer: 95

Question: And the “Plant response rating, Johnsongrass” value [6, 11]?
Answer: 70

Question: And the “Plant response rating, Johnsongrass” value [6, 12]?
Answer: 100

Question: What about the “Plant response rating, Johnsongrass” value [6, 13] of the same compound?
Answer: 100

Question: And the “Plant response rating, Lambsquarters” value [7, 11]?
Answer: 98

Question: And the “Plant response rating, Lambsquarters” value [7, 12]?
Answer: 100

Question: And the “Plant response rating, Lambsquarters” value [7, 13]?
Answer: 100

Question: And the “Plant response rating, Pigweed” value [8, 11]?
Answer: 65

Question: What about the “Plant response rating, Pigweed” value [8, 12] of the same compound?
Answer: 90

Question: What about the “Plant response rating, Pigweed” value [8, 13] of the same compound?
Answer: 98

Question: And the “Plant response rating, Ragweed” value [9, 11]?
Answer: 90

Question: What about the “Plant response rating, Ragweed” value [9, 12] of the same compound?
Answer: 100

Question: And the “Plant response rating, Ragweed” value [9, 13]?
Answer: 100

Question: And the “Plant response rating, Oat, Wild” value (wild oat (Avena fatua); [11])?
Answer: 30

Question: And the “Plant response rating, Oat, Wild” value (wild oat (Avena fatua); [12])?
Answer: 60

Question: What about the “Plant response rating, Oat, Wild” value (wild oat (Avena fatua); [13]) of the same compound?
Answer: 70

Question: And the “Plant response rating, Rice” value (rice (Oryza sativa); [16])?
Answer: 0

Question: And the “Rice plant response rating” value (rice (Oryza sativa))?
Answer: 0

Question: And the “Plant response rating, Sedge, Umbrella” value [10, 16]?
Answer: 75

Question: And the “Sedge, Umbrella plant response rating” value [10]?
Answer: 40
